Assay results taken from US20120122860A1, “SOLID FORMS OF SULFONAMIDES AND AMINO ACIDS” (Plexxikon, Inc., priority 2009, published 2012).

Legend:
B-Raf = B-Raf (Homo sapiens, UniProt P15056); experiment: Kinase activity assay, B-Raf; assay type: biochemical; conditions: read-out: activity toward kinase B-Raf, IC50
Kdr = Kdr (Homo sapiens, UniProt P35968); experiment: Kinase activity assay, Kdr
Kit = Kit (Homo sapiens, UniProt P10721); experiment: Kinase activity assay, Kit
C-Raf = C-Raf (Homo sapiens, UniProt P04049); experiment: Kinase activity assay, C-Raf
B-Raf V600E = B-Raf V600E (Homo sapiens, UniProt P15056, V600E); experiment: Kinase activity assay, B-Raf V600E; assay type: biochemical; conditions: read-out: activity toward kinase B-Raf V600E, IC50
MAP4K4 = MAP4K4 (Homo sapiens, UniProt O95819); experiment: Kinase activity assay, MAP4K4
Fms = Fms (Homo sapiens, UniProt P07333); experiment: Kinase activity assay, Fms
Src = Src (Homo sapiens, UniProt P12931); experiment: Kinase activity assay, Src

Measured: IC50

Sequence of C-Raf (P04049 whole entry): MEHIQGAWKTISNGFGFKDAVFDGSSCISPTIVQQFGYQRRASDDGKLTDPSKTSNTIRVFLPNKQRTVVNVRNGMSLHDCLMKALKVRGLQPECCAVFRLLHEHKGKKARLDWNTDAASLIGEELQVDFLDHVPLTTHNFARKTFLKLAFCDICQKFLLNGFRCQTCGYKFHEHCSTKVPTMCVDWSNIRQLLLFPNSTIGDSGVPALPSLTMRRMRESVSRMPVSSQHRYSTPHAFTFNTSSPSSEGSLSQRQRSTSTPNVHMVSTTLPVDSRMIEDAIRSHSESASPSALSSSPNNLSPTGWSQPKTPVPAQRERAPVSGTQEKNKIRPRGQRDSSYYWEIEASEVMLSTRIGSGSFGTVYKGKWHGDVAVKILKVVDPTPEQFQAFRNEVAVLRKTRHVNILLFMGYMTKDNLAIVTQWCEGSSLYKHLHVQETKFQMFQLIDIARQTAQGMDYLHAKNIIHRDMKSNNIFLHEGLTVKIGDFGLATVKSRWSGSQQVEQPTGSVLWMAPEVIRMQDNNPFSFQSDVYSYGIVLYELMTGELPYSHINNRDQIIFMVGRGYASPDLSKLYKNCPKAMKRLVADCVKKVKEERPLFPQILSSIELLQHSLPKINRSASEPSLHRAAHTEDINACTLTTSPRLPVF
Sequence of Kit (P10721 26-976): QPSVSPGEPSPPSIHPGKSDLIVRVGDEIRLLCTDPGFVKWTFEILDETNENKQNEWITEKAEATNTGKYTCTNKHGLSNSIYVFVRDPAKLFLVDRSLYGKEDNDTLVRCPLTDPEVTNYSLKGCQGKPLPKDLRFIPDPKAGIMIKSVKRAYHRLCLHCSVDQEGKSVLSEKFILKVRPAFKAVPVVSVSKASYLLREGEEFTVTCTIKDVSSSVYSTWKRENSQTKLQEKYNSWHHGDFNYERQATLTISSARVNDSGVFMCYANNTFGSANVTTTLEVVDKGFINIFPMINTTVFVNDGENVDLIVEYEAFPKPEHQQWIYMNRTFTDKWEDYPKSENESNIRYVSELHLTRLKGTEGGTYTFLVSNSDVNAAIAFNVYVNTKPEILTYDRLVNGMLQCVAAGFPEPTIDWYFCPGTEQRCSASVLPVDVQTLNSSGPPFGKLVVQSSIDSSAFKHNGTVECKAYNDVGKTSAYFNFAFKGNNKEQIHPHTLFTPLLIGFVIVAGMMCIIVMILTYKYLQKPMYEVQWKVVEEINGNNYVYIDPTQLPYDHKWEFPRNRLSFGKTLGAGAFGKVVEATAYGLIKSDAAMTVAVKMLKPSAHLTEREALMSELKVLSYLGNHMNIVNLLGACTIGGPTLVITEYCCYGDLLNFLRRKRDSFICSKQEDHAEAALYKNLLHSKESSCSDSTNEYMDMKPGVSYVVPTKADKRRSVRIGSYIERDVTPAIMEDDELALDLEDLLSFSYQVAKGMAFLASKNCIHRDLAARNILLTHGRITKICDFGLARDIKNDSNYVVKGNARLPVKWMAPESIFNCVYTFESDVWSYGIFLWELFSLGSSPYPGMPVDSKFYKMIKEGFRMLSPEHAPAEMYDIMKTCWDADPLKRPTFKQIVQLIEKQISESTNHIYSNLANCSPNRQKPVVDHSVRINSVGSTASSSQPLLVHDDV
Sequence of Kdr (P35968 20-1356): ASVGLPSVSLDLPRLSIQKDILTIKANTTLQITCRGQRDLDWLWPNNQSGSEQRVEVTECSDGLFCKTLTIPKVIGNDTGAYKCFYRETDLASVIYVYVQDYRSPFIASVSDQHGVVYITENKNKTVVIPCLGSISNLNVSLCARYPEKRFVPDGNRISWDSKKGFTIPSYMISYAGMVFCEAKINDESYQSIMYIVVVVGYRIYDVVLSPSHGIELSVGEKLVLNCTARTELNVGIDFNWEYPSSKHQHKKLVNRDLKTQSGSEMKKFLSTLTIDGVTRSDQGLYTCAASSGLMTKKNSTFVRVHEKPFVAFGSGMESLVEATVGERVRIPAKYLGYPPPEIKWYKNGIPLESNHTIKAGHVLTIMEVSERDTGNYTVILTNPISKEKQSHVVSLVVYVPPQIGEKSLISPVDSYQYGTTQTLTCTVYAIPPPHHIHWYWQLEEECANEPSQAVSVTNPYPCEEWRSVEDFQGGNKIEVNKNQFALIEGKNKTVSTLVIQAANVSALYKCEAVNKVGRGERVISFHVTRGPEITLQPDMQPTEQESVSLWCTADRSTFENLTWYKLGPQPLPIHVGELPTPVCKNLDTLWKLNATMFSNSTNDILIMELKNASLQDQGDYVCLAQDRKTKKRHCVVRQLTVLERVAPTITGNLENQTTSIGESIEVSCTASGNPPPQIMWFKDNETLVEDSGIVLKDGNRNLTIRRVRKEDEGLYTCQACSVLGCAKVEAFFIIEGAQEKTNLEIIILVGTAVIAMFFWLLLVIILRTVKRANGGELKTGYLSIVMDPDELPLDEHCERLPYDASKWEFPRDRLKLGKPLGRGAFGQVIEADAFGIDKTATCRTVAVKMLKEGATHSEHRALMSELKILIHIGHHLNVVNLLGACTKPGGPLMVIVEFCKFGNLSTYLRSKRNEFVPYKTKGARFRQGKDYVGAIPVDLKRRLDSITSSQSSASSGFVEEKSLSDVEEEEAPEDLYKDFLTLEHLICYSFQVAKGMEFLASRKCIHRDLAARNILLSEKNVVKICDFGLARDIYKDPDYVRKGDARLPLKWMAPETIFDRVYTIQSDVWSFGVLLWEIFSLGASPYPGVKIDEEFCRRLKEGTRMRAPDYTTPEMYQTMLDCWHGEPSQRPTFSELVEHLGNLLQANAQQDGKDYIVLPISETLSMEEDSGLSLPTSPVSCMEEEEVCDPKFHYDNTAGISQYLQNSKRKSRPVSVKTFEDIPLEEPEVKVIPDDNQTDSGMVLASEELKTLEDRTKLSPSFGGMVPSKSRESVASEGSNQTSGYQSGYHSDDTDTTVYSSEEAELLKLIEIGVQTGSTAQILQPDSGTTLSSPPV
Sequence of MAP4K4 (O95819 whole entry): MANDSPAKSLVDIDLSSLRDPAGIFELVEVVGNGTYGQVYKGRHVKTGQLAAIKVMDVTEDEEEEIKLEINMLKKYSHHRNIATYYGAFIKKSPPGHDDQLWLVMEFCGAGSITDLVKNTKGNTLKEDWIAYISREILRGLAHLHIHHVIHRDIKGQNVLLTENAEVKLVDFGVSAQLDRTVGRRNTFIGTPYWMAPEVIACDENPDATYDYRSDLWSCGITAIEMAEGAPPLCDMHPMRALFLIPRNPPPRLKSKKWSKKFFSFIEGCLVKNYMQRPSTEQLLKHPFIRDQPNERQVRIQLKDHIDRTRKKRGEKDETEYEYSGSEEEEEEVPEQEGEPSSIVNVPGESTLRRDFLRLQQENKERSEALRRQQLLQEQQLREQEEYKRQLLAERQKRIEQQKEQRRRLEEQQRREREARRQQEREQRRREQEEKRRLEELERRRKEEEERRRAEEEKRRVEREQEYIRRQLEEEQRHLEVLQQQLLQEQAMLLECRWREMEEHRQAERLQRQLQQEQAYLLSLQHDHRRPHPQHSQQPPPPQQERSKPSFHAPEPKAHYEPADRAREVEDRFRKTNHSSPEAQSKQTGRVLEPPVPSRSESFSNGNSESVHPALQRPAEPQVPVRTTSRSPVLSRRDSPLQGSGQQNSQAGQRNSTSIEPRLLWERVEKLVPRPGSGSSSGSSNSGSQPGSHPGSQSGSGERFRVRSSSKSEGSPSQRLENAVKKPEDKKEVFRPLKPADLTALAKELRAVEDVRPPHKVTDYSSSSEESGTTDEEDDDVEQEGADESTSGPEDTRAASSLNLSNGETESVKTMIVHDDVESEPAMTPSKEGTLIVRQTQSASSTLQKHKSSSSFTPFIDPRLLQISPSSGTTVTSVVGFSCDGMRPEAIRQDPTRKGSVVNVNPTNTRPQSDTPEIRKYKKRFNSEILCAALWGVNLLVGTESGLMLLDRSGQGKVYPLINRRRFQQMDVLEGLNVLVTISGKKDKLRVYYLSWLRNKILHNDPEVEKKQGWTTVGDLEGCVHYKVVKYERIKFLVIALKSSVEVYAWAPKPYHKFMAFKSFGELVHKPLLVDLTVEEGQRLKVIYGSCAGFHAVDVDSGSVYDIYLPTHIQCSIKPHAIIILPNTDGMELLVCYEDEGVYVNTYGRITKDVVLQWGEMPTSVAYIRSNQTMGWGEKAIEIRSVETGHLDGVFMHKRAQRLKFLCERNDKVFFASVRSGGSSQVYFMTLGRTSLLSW
Sequence of Src (P12931 whole entry): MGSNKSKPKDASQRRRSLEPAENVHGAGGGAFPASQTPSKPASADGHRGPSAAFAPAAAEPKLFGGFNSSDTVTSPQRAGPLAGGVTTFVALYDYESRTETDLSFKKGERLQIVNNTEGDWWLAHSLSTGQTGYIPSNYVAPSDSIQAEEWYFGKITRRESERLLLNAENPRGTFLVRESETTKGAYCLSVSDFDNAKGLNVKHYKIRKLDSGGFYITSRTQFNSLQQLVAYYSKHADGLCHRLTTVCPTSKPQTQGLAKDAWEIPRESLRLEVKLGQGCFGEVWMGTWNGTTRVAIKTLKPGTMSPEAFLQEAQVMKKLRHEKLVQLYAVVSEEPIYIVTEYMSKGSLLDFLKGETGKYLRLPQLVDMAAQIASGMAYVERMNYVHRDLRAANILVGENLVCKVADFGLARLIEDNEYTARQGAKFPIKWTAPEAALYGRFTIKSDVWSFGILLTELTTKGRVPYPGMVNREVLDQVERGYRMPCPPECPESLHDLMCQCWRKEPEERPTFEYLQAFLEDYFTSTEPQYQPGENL

O=C(CCCCC1SCC2NC(=O)NC21)NCCCCCNC(=O)CCc1cnc2[nH]cc(C(=O)c3c(F)ccc(NS(=O)(=O)c4ccc(C(F)(F)F)cc4)c3F)c2c1 (stereo not shown) [P-2008, 5-(2-Oxo-hexahydro-thieno[3,4-d]imidazol-6-yl)-pentanoic acid [5-(3-{3-[2,6-difluoro-3-(4-trifluoromethyl-benzenesulfonylamino)-benzoyl]-1H-pyrrolo[2,3-b]pyridin-5-yl}-propionylamino)-pentyl]-amide]
not listed: Src
≤ 10 µM: all other assays above

O=C(c1c(F)ccc(NS(=O)(=O)c2c(F)cccc2F)c1F)c1c[nH]c2nccc(Cl)c12 [P-2033, N-[3-(4-Chloro-1H-pyrrolo[2,3-b]pyridine-3-carbonyl)-2,4-difluoro-phenyl]-2,6-difluoro-benzenesulfonamide]
not listed: Fms
≤ 10 µM: all other assays above

O=C(c1c(F)ccc(NS(=O)(=O)c2ccc(F)cc2F)c1F)c1c[nH]c2nccc(Cl)c12 [P-2034, N-[3-(4-Chloro-1H-pyrrolo[2,3-b]pyridine-3-carbonyl)-2,4-difluoro-phenyl]-2,4-difluoro-benzenesulfonamide]
not listed: Fms
≤ 10 µM: all other assays above

Cc1cnc2[nH]cc(C(=O)c3cc(NS(=O)(=O)c4cccnc4)ccc3F)c2c1 [P-2137, Pyridine-3-sulfonic acid [4-fluoro-3-(5-methyl-1H-pyrrolo[2,3-b]pyridine-3-carbonyl)-phenyl]-amide]
≤ 10 µM: Kdr | MAP4K4 | Src | Fms

Cc1cnc2[nH]cc(C(=O)c3cccc(NS(=O)(=O)c4cccnc4)c3)c2c1 [P-2141, Pyridine-3-sulfonic acid [3-(5-methyl-1H-pyrrolo[2,3-b]pyridine-3-carbonyl)-phenyl]-amide]
≤ 10 µM: Kdr | Kit | MAP4K4 | Fms

O=C(c1cccc(NS(=O)(=O)c2cccnc2)c1)c1c[nH]c2ncc(F)cc12 [P-2143, Pyridine-3-sulfonic acid [3-(5-fluoro-1H-pyrrolo[2,3-b]pyridine-3-carbonyl)-phenyl]-amide]
≤ 10 µM: Kdr | C-Raf | MAP4K4 | Fms

O=C(O)CCc1cccc(-c2cnc3[nH]cc(C(=O)c4cccc(NS(=O)(=O)c5cccnc5)c4)c3c2)c1 [P-2148, 3-(3-{3-[3-(Pyridine-3-sulfonylamino)-benzoyl]-1H-pyrrolo[2,3-b]pyridin-5-yl}-phenyl)-propionic acid]
not listed: C-Raf | B-Raf V600E
≤ 10 µM: all other assays above

CCCS(=O)(=O)Nc1ccc(F)c(C(=O)c2c[nH]c3ncc(-c4cnc(C)nc4)cc23)c1F [P-2211, Propane-1-sulfonic acid {2,4-difluoro-3-[5-(2-methyl-pyrimidin-5-yl)-1H-pyrrolo[2,3-b]pyridine-3-carbonyl]-phenyl}-amide]
not listed: Kit
≤ 10 µM: all other assays above

CCCS(=O)(=O)Nc1ccc(F)c(C(=O)c2c[nH]c3ncc(-c4ccc(S(=O)(=O)NCCO)cc4)cc23)c1F [P-2221, 4-{3-[2,6-Difluoro-3-(propane-1-sulfonylamino)-benzoyl]-1H-pyrrolo[2,3-b]pyridin-5-yl}-N-(2-hydroxy-ethyl)-benzenesulfonamide]
≤ 10 µM: Kdr | Kit | MAP4K4 | Fms

CCCS(=O)(=O)Nc1ccc(F)c(C(=O)c2c[nH]c3ncc(-c4ccc(S(=O)(=O)C(C)C)cc4)cc23)c1F [P-2223, Propane-1-sulfonic acid (2,4-difluoro-3-{5-[4-(propane-2-sulfonyl)-phenyl]-1H-pyrrolo[2,3-b]pyridine-3-carbonyl}-phenyl)-amide]
not listed: Fms
≤ 10 µM: all other assays above

CCCS(=O)(=O)Nc1ccc(F)c(C(=O)c2c[nH]c3ncc(-c4ccc(CCCOC)nc4)cc23)c1F [P-2226, Propane-1-sulfonic acid (2,4-difluoro-3-{5-[6-(3-methoxy-propyl)-pyridin-3-yl]-1H-pyrrolo[2,3-b]pyridine-3-carbonyl}-phenyl)-amide]
≤ 10 µM: all assays above

CCCS(=O)(=O)Nc1ccc(F)c(C(=O)c2c[nH]c3ncc(-c4nn[nH]n4)cc23)c1F [P-2242, Propane-1-sulfonic acid {2,4-difluoro-3-[5-(2H-tetrazol-5-yl)-1H-pyrrolo[2,3-b]pyridine-3-carbonyl]-phenyl}-amide]
≤ 10 µM: Kdr | Kit | MAP4K4 | Src | Fms

CCCCS(=O)(=O)Nc1ccc(F)c(C(=O)c2c[nH]c3ncc(-c4ccc(Cl)cc4)cc23)c1F [P-2300, Butane-1-sulfonic acid {3-[5-(4-chloro-phenyl)-1H-pyrrolo[2,3-b]pyridine-3-carbonyl]-2,4-difluoro-phenyl}-amide]
≤ 10 µM: Kdr | Kit | MAP4K4 | Src | Fms

Cc1cnc2[nH]cc(C(=O)c3c(F)ccc(NS(=O)(=O)C4CCCCC4)c3F)c2c1 [P-2360, Cyclohexanesulfonic acid [2,4-difluoro-3-(5-methyl-1H-pyrrolo[2,3-b]pyridine-3-carbonyl)-phenyl]-amide]
not listed: Fms
≤ 10 µM: all other assays above

O=C(c1cccc(NS(=O)(=O)C2CCCCC2)c1)c1c[nH]c2ncc(Cl)cc12 [P-2452, Cyclohexanesulfonic acid [3-(5-chloro-1H-pyrrolo[2,3-b]pyridine-3-carbonyl)-phenyl]-amide]
≤ 10 µM: Kdr | Kit | B-Raf V600E | MAP4K4 | Fms

O=C(c1cccc(NS(=O)(=O)C2CCCC2)c1)c1c[nH]c2ncc(Cl)cc12 [P-2453, Cyclopentanesulfonic acid [3-(5-chloro-1H-pyrrolo[2,3-b]pyridine-3-carbonyl)-phenyl]-amide]
≤ 10 µM: Kdr | Kit | B-Raf V600E | MAP4K4 | Fms

Cc1cnc2[nH]cc(C(=O)c3cccc(NS(=O)(=O)C4CCCCC4)c3)c2c1 [P-2458, Cyclohexanesulfonic acid [3-(5-methyl-1H-pyrrolo[2,3-b]pyridine-3-carbonyl)-phenyl]-amide]
≤ 10 µM: Kdr | Kit | MAP4K4 | Fms

O=C(O)CCc1cccc(-c2cnc3[nH]cc(C(=O)c4cccc(NS(=O)(=O)C5CCCCC5)c4)c3c2)c1 [P-2465, 3-{3-[3-(3-Cyclohexanesulfonylamino-benzoyl)-1H-pyrrolo[2,3-b]pyridin-5-yl]-phenyl}-propionic acid]
not listed: C-Raf
≤ 10 µM: all other assays above
